{"source": "paper PMC3058180", "about": "(Journal of pharmaceutical sciences, 2010)", "key": {"A/Wuhan/359/95 (H3N2)": {"test_system": "A/Wuhan/359/95 (H3N2)", "test": "microbe, parasite or virus in culture", "assay_type": "cell-based", "settings": "Influenza A virus, H3N2, MDCK, read-out: IC50 (nM of Zanamivir)"}, "[1]": {"test_system": "A/turkey/MN/833/80 (H4N2)", "test": "microbe, parasite or virus in culture", "assay_type": "cell-based", "settings": "Influenza A virus, H4N2, MDCK, read-out: IC50 (nM of Zanamivir)"}}}
{"smiles": "CC(=O)N[C@H]1[C@H]([C@H](O)[C@H](O)CO)OC(C(=O)O)=C[C@@H]1N=C(N)N", "note": "[compound 1, Zanamivir]", "values": [{"measurement": "IC50", "setting": "A/Wuhan/359/95 (H3N2)", "result": 23000, "unit": "nM"}, {"measurement": "IC50", "setting": "[1]", "result": 21000, "unit": "nM"}]}
